Experimental data as given in patent publication US20250134866A1, “COMMENSAL SIGNALLING COMPOUNDS FOR TREATING OR PREVENTING MICROBIOME DYSFUNCTION IN THE SKIN OR MOUTH” (priority 2022, published 2025).

Tests used:
S. Aureus ATCC 6538 = assay: Growth of S. aureus culture in presence of EGT (optical density, 24 hours); type: cell-based; conditions: 0.001%, 0.05% or 0.1% (w/v) added upon inoculation, MH media, 37 C, OD monitored 24 hours
Protocol: (§1) The growth of two bacterial strains, one commensal containing EGT-synthetic genes (P. aeruginosa ATCC 27853) and one pathogen lacking such genes (S. Aureus ATCC 6538) were compared in the presence and absence of EGT. Each strain was adjusted to an OD600 of 0.2 in MH culture media, inoculated into 96-well plates and incubated at 37 C. The growth of the cultures were monitored for optical density for 24 hours. The S. aureus and P. aeruginosa cultures reached stationary phase after 15 and 2 hours, respectively. Addition of L-ergothioneine (99+% purity) at 0.001%, 0.05% or 0.1% (w/v) upon inoculation had no effect on the growth rate of either culture.

P. aeruginosa ATCC 27853 = assay: Growth of P. aeruginosa culture in presence of EGT (optical density, 24 hours); type: cell-based; conditions: 0.001%, 0.05% or 0.1% (w/v) added upon inoculation, MH media, 37 C, OD monitored 24 hours
Protocol: as §1

IL-8 = assay: Release of inflammatory cytokine IL-8 by human keratinocytes after treatment with S. aureus; type: cell-based; conditions: 24 hours pre-treatment, keratinocytes infected with S. aureus at multiplicity of infection of 10, 24 hours
Protocol: The present example examines the release of the inflammatory cytokine IL-8 by human keratinocytes after treatment with S. aureus. Although S. aureus is associated with atopic dermatitis, IL-8 […] as inflammatory cytokine in this disease (Li and Yosipovitch, 2020).
Infection of a keratinocyte culture at a multiplicity of infection of 10 increased the amount of IL-8 from low levels in uninfected cultures to an increase of 6,044% in 24 hours in infected cultures. Pre-treatment of the keratinocyte cultures with EGT for 24 hours reduced the release of IL-8 by 61% for 0.005% EGT, 75% for 0.01% EGT, and 82% for 0.05% EGT.

[1] = Skin redness of atopic dermatitis lesions, topical formula, dermospectrophotometer; type: in vivo, human; conditions: placebo 9%
Protocol: The present example tests the effect of EGT on skin inflammation in subjects with atopic dermatitis lesions.
Three topical formulas were prepared using a commercial formulation of EGT called MC-2, which is a granulated preparation of EGT mixed into mannitol. One formulation was a placebo, with only mannitol added. The second was a low dose formula containing EGT in the form of MC-2 added to a final concentration of 0.005% EGT (w/w). The third was a high dose formulation containing EGT in the form of MC-2 added to a final concentration of 0.05% EGT (w/w).
Subjects with patches of atopic dermatitis were recruited to the study and 16 were assigned to each of three arms: placebo, low dose EGT and high dose EGT. The subjects were 9 males and 39 females, representing each Fitzpatrick Skin Type (I-VI) in age range from 21 to 73 years old. The redness of the skin lesion was measured using a dermospectrophotometer and compared to adjacent uninvolved skin to determine a redness measure. The subjects used the test formula on the skin lesion twice a day for 4 weeks. The lesions were again measured with a dermospectrophotometer.

Question: Which “effect on the growth rate of culture” value (S. Aureus ATCC 6538) does the source give for C[N+](C)(C)[C@@H](Cc1c[nH]c(=S)[nH]1)C(=O)[O-] [EGT] here?
Answer: no effect

Question: What about the “effect on the growth rate of culture” value (P. aeruginosa ATCC 27853) of the same compound?
Answer: no effect

Question: And the “reduction of release of IL-8” value (IL-8; 0.005% EGT)?
Answer: 61%

Question: And the “reduction of release of IL-8” value (IL-8; 0.01% EGT)?
Answer: 75%

Question: What about the “reduction of release of IL-8” value (IL-8; 0.05% EGT) of the same compound?
Answer: 82%

Question: And the “redness reduction of skin lesion” value ([1]; high dose topical formula, 0.05% EGT (w/w) as MC-2, twice a day for 4 weeks)?
Answer: 50%

Question: And the “redness reduction of skin lesion” value ([1]; low dose topical formula, 0.005% EGT (w/w) as MC-2, twice a day for 4 weeks)?
Answer: 66%
